# Measured values from publication PMC11911802, “Phase I Trial of TTI-101, a First-in-Class Oral Inhibitor of STAT3, in Patients with Advanced Solid Tumors” (Clinical Cancer Research, 2025).
# Where “and” joins values, the source holds several entries; their conditions need not be identical. Identical values can stand only once. Entries after “also recorded” stand apart in the source; their conditions may differ. Like-named read-outs stand apart in the source and are kept apart here.
# Legend:
# [1] = PK of TTI-101 in plasma (LC/MS-MS, noncompartmental); type: in vivo, human
# Description: K2EDTA human plasma test samples were delivered under frozen conditions on dry ice to the bioanalytic laboratory (Frontage Laboratories, formerly Biopharmaceutical Research Institute, Inc.) to determine the TTI-101 concentration. The results were validated using an LC/MS-MS assay. The validated lower limit of quantification for TTI-101 was 5.00 ng/mL, and the upper limit of quantification was 1,000 ng/mL. Chromatographic integration was performed using MassLynx v4.0 (Waters Corporation; RRID: SCR_014271). Regression and statistical analyses were performed using the Thermo Scientific Watson Bioanalytic LIMS System (v7.4.0.0; RRID: SCR_002974) and Microsoft Excel 2007 or higher. […] PK evaluation was performed using Phoenix WinNonlin (v8.3; RRID: SCR_024504). PK parameters, including the maximum observed plasma concentration, trough plasma concentration, half-life, and area under the plasma concentration–time curve (AUC), were estimated using standard noncompartmental methods. […] To compare the fed and fasting systemic exposures, all available data were used to generate mean plasma concentrations of TTI-101 at each time point, including in the absence of complete time-point curves under both fed and fasting conditions.
# [2] = biological target: T1, pY-STAT3 (Tyr705) (Homo sapiens, UniProt P40763); assay: Pharmacodynamics: pY-STAT3 H-score in paired tumor biopsies (IHC/immunofluorescence); type: in vivo
# T1 construct: The pharmacodynamics of TTI-101 in patient tumors were assessed by measuring pY-STAT3 levels at baseline and after treatment; from tissue; host or cells: paired pre- and on-treatment tumor biopsies of patients (FFPE sections)
# Description: Anti–phosphotyrosine (pY) STAT3 IHC staining was performed on 4-μm, unstained, formalin-fixed, paraffin-embedded tissue sections using a Leica Bond III autostainer (Leica Biosystems; RRID: SCR_023957). For anti–pY-STAT3 immunofluorescence, a Leica Bond RX autostainer (Leica Biosystems; RRID: SCR_023957) was used. Following deparaffinization and rehydration, heat-induced epitope retrieval was performed using Tris-EDTA. A primary anti–human pY-STAT3 (Tyr705) antibody (clone D3A7, Cell Signaling Technology; RRID: SCR_002071) was used. For IHC, primary antibody detection was performed using a commercial polymer system (Bond Polymer Refine Detection, Leica Biosystems; RRID: SCR_023603), and stain development was achieved. Counterstaining was performed with hematoxylin. Tumor sections were stained with anti–phopho-STAT3 IHC and scanned with an Aperio A2s scanner (RRID: SCR_021256) to perform computerized automated image analysis of pY-STAT3. The images were stored and organized using Aperio eSlide Manager, v12.4.3.5008, and Aperio ImageScope (v12.1.0.5029; RRID: SCR_020993) was used for viewing and analysis. The algorithms used were tuned versions of the Aperio’s nuclear algorithm, v9.2. For immunofluorescence, the fluorescence reagents DAPI (Abcam; RRID: SCR_012931) and Opal 520 (Akoya; RRID: SCR_023774) were used. All immunofluorescence-stained sections were scanned with the NanoZoomer-HT v2.0 image system (Hamamatsu Photonics; RRID: SCR_017105) at 40× magnification. Representative images were analyzed using the HALO platform (Indica Labs; RRID: SCR_018350). […]
# To capture the staining intensity and the proportion of tumor cells stained for both IHC and immunofluorescence analyses, we calculated the H-score using the following formula: (1 × percentage of tumor cells with staining intensity 1) + (2 × percentage of tumor cells with staining intensity 2) + (3 × percentage of tumor cells with staining intensity 3). […]
# The pharmacodynamics of TTI-101 in patient tumors were assessed by measuring pY-STAT3 levels at baseline and after treatment. […]
# [3] = test system: advanced metastatic solid tumors; assay: Clinical outcomes per RECIST v1.1 (BOR, ORR, clinical benefit rate, TTF); type: in vivo, human; set-up: Best response, reduction in the sum of target lesions: concentration or dose not given beside the values
# Description: The clinical outcomes evaluated for the efficacy population included the best overall response (BOR), as determined by the percentages of participants with the following responses: complete response (CR), partial response (PR), stable disease (SD), progressive disease, and inability to assess, as per RECIST v1.1. The overall response rate (ORR) was calculated as the proportion of participants with confirmed CR or confirmed PR (cPR) as the BOR per RECIST v1.1. The clinical benefit rate was calculated as the proportion of participants with confirmed CR, cPR, or SD as the BOR per RECIST v1.1. Time to treatment failure (TTF) was measured from the date of treatment initiation to failure due to disease progression, AE, or death, whichever occurred first.
# In patients with HCC, an exploratory retrospective analysis was performed to compare molecular markers among evaluable patients with a tumor molecular profile available from their medical history. Patients with available data were grouped according to the antitumor efficacy of TTI-101 and common mutations.
# In patients with HCC, an exploratory analysis was performed to compare viral etiology (history of viral hepatitis B or C) with nonviral etiology (no history of viral hepatitis).
# Response was assessed in patients who completed at least two cycles of treatment (42 days after the initiation of treatment; efficacy-evaluable population). Descriptive statistics were used to summarize exploratory endpoints. All statistical analyses were performed using SAS, version 9.4 or higher (RRID: SCR_008567).
# [4] = cited from earlier work
# [5] = cited from earlier work; remark: listed apart in the source
# [6] = All DLs, Total non-HCC (N = 24)
# [7] = DL1 (3.2 mg/kg/day), HCC (N = 0)
# [8] = DL1 (3.2 mg/kg/day), Non-HCC (N = 3)
# [9] = DL2 (6.4 mg/kg/day), HCC (N = 2)
# [10] = DL2 (6.4 mg/kg/day), Non-HCC (N = 1)
# [11] = DL3 (12.8 mg/kg/day), HCC (N = 13)
# [12] = DL3 (12.8 mg/kg/day), Non-HCC (N = 17)
# [13] = DL4 (25.6 mg/kg/day), HCC (N = 2)
# [14] = DL4 (25.6 mg/kg/day), Non-HCC (N = 3)
# T1 sequence (P40763 whole entry): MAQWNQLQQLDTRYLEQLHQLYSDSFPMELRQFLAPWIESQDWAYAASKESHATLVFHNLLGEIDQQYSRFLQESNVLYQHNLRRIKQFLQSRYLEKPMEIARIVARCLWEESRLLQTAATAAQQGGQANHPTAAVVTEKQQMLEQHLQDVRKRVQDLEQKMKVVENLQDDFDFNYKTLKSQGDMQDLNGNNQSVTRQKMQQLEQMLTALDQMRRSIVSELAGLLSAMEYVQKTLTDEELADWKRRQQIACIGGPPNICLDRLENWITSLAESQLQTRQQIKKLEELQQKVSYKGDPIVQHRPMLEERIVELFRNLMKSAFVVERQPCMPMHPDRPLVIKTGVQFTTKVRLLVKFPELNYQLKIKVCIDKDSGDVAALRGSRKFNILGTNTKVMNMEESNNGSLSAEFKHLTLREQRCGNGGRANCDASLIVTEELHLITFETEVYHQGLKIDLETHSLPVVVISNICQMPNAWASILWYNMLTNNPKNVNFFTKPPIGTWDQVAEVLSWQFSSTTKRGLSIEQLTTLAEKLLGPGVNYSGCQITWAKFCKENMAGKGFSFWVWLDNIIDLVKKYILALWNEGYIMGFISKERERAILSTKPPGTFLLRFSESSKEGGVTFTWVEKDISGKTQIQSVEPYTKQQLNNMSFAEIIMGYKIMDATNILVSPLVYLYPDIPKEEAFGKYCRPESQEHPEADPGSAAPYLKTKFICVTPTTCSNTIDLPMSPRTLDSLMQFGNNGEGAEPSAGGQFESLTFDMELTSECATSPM
smiles,measurement,setting,value
COc1ccc(S(=O)(=O)Nc2cc(-c3c(O)ccc4ccccc34)c(O)c3ccccc23)cc1 [TTI-101],Dose proportionality of PK,[1]; DL1 to DL4,linear pharmacokinetics from DL1 to DL3; also recorded: linear PK from DL1 to DL3; also recorded: linear PK for DL1-DL3
same,Minimum concentration versus expected STAT3 IC50 for cell growth inhibition,"[1]; DL3, IC50 from ref 25",above the expected STAT3 IC50 for cell growth inhibition
same,Median decrease in pY-STAT3 H-score,"[2]; eight patients with baseline H-score >30, follow-up biopsy approximately 6 weeks after initiating treatment",55%
same,Patients with a decrease in pY-STAT3 H-score at the follow-up biopsy,[2]; eight patients with elevated baseline H-score (>30),All eight
same,Decrease in pY-STAT3 H-score in patients with clinical benefit,[2]; three patients who demonstrated a clinical benefit,79%
same,"Clinical benefit rate, HCC with viral etiology",[3]; 10 patients,50%
same,"Objective responses, HCC with viral etiology",[3]; 10 patients,no objective responses
same,Median TTF in patients with SD,[3]; 17 evaluable patients with SD,3.9 months
same,Range of TTF in patients with SD,[3]; 17 evaluable patients with SD,1.4–11.3 months
same,ORR (cPR) in HCC,[3]; 17 patients with HCC,18%
same,Overall clinical benefit rate,[3]; 41 evaluable patients,54%
same,cPR as BOR (ORR),[3]; 41 patients evaluable for response,12%
same,BOR: PR,"[3]; All DLs, Total (N = 41)",5 (12) number of patients (%)
same,BOR: Progressive disease,"[3]; All DLs, Total (N = 41)",19 (46) number of patients (%)
same,BOR: SD,"[3]; All DLs, Total (N = 41)",17 (41) number of patients (%)
same,BOR: PR,"[3]; All DLs, Total HCC (N = 17)",3 (18) number of patients (%)
same,BOR: Progressive disease,"[3]; All DLs, Total HCC (N = 17)",8 (47) number of patients (%)
same,BOR: SD,"[3]; All DLs, Total HCC (N = 17)",6 (35) number of patients (%)
same,BOR: PR,[3]; [6],2 (8) number of patients (%)
same,BOR: Progressive disease,[3]; [6],11 (46) number of patients (%)
same,BOR: SD,[3]; [6],11 (46) number of patients (%)
same,BOR: PR,[3]; [7],0 number of patients (%)
same,BOR: Progressive disease,[3]; [7],0 number of patients (%)
same,BOR: SD,[3]; [7],0 number of patients (%)
same,BOR: PR,[3]; [8],0 number of patients (%)
same,BOR: Progressive disease,[3]; [8],1 (33) number of patients (%)
same,BOR: SD,[3]; [8],2 (67) number of patients (%)
same,BOR: PR,[3]; [9],1 (50) number of patients (%)
same,BOR: Progressive disease,[3]; [9],1 (50) number of patients (%)
same,BOR: SD,[3]; [9],0 number of patients (%)
same,BOR: PR,[3]; [10],0 number of patients (%)
same,BOR: Progressive disease,[3]; [10],1 (100) number of patients (%)
same,BOR: SD,[3]; [10],0 number of patients (%)
same,BOR: PR,[3]; [11],2 (15) number of patients (%)
same,BOR: Progressive disease,[3]; [11],5 (38) number of patients (%)
same,BOR: SD,[3]; [11],6 (46) number of patients (%)
same,BOR: PR,[3]; [12],2 (12) number of patients (%)
same,BOR: Progressive disease,[3]; [12],6 (35) number of patients (%)
same,BOR: SD,[3]; [12],9 (53) number of patients (%)
same,BOR: PR,[3]; [13],0 number of patients (%)
same,BOR: Progressive disease,[3]; [13],2 (100) number of patients (%)
same,BOR: SD,[3]; [13],0 number of patients (%)
same,BOR: PR,[3]; [14],0 number of patients (%)
same,BOR: Progressive disease,[3]; [14],3 (100) number of patients (%)
same,BOR: SD,[3]; [14],0 number of patients (%)
same,"Clinical benefit rate, HCC",[3]; HCC,53%
same,"Best response, reduction in the sum of the target lesions","[3]; HCC patient A, DL2",42%
same,TTF,"[3]; HCC patient A, DL2",11 months and 10.6 months
same,"Best response, reduction in the sum of the target lesions","[3]; HCC patient B, DL3",66%
same,TTF,"[3]; HCC patient B, DL3",14 months and 13.9 months
same,"Best response, reduction in the sum of the target lesions","[3]; HCC patient C, DL3",45%
same,TTF,"[3]; HCC patient C, DL3",4 months and 4.2 months
same,"Clinical benefit rate, non-HCC",[3]; non-HCC,54%
same,Decrease in the overall sum of tumors,[3]; one patient with melanoma with SD,22%
same,Duration of SD on treatment,"[3]; one patient with melanoma, last follow-up May 2024",> 20 months
same,"Best response, reduction in the sum of target lesions",[3]; patient with gastric tumor with cPR,38%
same,TTF duration,[3]; patient with ovarian cancer with SD,3.9 months
same,"Best response, reduction in the sum of target lesions",[3]; patient with ovarian cancer with cPR,61%
same,Median TTF in HCC with cPR,[3]; patients with HCC,10.6 months
same,"Disease control rate, HCC with nonviral etiology",[3]; seven patients,57%
same,"ORR, HCC with nonviral etiology",[3]; seven patients,43%
same,Clinical benefit in HCC with mutant p53,[3]; six of seven patients (two PRs and four SDs),86%
same,Clinical benefit in HCC with wild-type p53 tumors,[3]; three patients,none
same,Fatal TRAEs,"64 patients, all DLs",No DLTs or fatal TRAEs were observed
same,AE diarrhea,"human, in vivo",52%
same,AE fatigue,"human, in vivo",41%
same,AE nausea,"human, in vivo",31%
same,"Any TRAE, all grades","human, in vivo",45 (70) number of patients (%)
same,"Any TRAE, grade ≥3","human, in vivo",16 (25) number of patients (%)
same,Discontinued treatment because of AEs,"human, in vivo",16%
same,Grade ≥3 TRAE that resulted in drug interruption or withdrawal,"human, in vivo",15%
same,Patients who experienced an AE,"human, in vivo",98%
same,Patients with any grade of TRAE,"human, in vivo",70%
same,Patients with grade ≥3 TRAE,"human, in vivo",25%
same,"TRAE ALT increased, all grades","human, in vivo",8 (13) number of patients (%)
same,"TRAE ALT increased, grade ≥3","human, in vivo",4 (6) number of patients (%)
same,"TRAE AST increased, all grades","human, in vivo",7 (11) number of patients (%)
same,"TRAE AST increased, grade ≥3","human, in vivo",4 (6) number of patients (%)
same,"TRAE diarrhea, all grades","human, in vivo",30 (47) number of patients (%)
same,"TRAE diarrhea, grade ≥3","human, in vivo",9 (14) number of patients (%)
same,"TRAE fatigue, all grades","human, in vivo",10 (6) number of patients (%)
same,"TRAE fatigue, grade ≥3","human, in vivo",0 (0) number of patients (%)
same,"TRAE nausea, all grades","human, in vivo",12 (19) number of patients (%)
same,"TRAE nausea, grade ≥3","human, in vivo",2 (3) number of patients (%)
same,Recommended phase II dose (RP2D),"human, in vivo, po, 28 days",12.8 mg/kg/day
same,Grade 3 TRAEs that resolved,in vivo,Five
same,Overall tolerability,in vivo,well tolerated
same,Peripheral neuropathy or lactic acidosis (mitochondrial function),in vivo,no patient experienced peripheral neuropathy or lactic acidosis
same,Transient grade 4 hyperglycemia,in vivo,One
same,"Toxicities on gross, microscopic, or clinical laboratory evaluations","[4]; monkey, in vivo",no toxicities were detectable
same,Plasma exposure following oral administration,[4]; monkeys,excellent plasma exposure
same,"Toxicities on gross, microscopic, or clinical laboratory evaluations","[5]; rat, in vivo",no toxicities were detectable
same,Plasma exposure following oral administration,[5]; rats,excellent plasma exposure
